Measured values as given in patent US20020165221A1, “Mediators of hedgehog signaling pathways, compositions and uses related thereto” (priority 2000, published 2002).

Test system: Hedgehog pathway
Assay: Gli-Luc assay (Hedgehog-responsive Luciferase reporter), 10T1/2(s12) cells with OCT-SHH
Format: cell-based
Settings: OCT-SHH 0.3 μg/ml
Method: Compounds to be tested are dissolved in DMSO to a concentration of 10 MM, and stored at −20° C. To activate the Hedgehog pathway in the assay cells, an octylated (lipid-modified) form of the N-terminal fragment of the Sonic Hedgehog protein (OCT-SHH) is used. This N-terminal SHH fragment is produced bacterially.
Compounds may be tested in the “Gli-Luc” assay below, using the cell line 10T(s12), wherein the cells contain a Hedgehog-responsive reporter construct utilizing Luciferase as the reporter gene. In this way, Hedgehog pathway signaling activity can be measured via the Gli-Luc response.
10t1/2(s12) cells are plated in a 96-well micro-titer plate (MTP) at 20,000 cells/well in full medium [DMEM with 10% FBS]. Then plates are placed in the incubator for incubation overnight (O/N), at 37° C. and 5% CO2. After 24 h, the medium is replaced with Luciferase-assay medium (DMEM with 0.5% FBS). Compounds are thawed and diluted in assay medium at 3:1000 (about 300-fold) resulting in a starting concentration of about 30 μM.
Subsequently, 150 μl of each 30 μM sample is added to the first wells (in triplicate). The MTP samples are then diluted at 3-fold dilutions to a total of seven wells, ultimately resulting in a regiment of seven dilutions in triplicate, for each compound. Next, the protein ligand OCT-SHH is diluted in Luciferase-assay medium and added to each well at a final concentration of 0.3 μg/ml. Plates are then returned to the incubator for further incubation O/N, at 37° C. and 5% CO2. After about 24 h, plates are removed from the incubator and the medium is aspirated/discarded. Wells are washed once with assay buffer [PBS +1 mM Mg^2+and 1 mM Ca^2+]. Then 50 μl of assay buffer is added to each well. The Luciferase assay reagent is prepared as described by the vendor (LucLite kit from Packard), and 50 μl is added to each well. Plates are incubated at room temperature (RT) for about 30 minutes after which the signals are read, again at RT, on a Topcount (Packard).

IC50 [µM] | SMILES
< 1 | O=C(C1CC(N(Cc2cccs2)C(=O)C2CC2)CN1Cc1ccc2c(c1)OCO2)N1CCNCC1 (stereo not drawn) [V]
< 10 | Cc1ccc(CN2CC(N(CCc3ccccc3)Cc3ccc(F)cc3)CC2C(=O)NCCN)s1 (stereo not drawn) [H′]
< 10 | COc1cccc(CN(C(=O)c2ccco2)C2CC(C(=O)N3CCNCC3)N(Cc3ccc4c(c3)OCCO4)C2)c1 (stereo not drawn) [Q′]
< 10 | COc1cccc(CN(C(=O)C2CC2)C2CC(C(=O)N3CCNCC3)N(CC(C)C)C2)c1 (stereo not drawn) [A′]
< 1 | COc1cccc(CN2CC(N(Cc3cccc(OC)c3)C(=O)CC(C)(C)C)CC2C(=O)N2CCNCC2)c1 (stereo not drawn) [F]
< 10 | COc1cccc(CN(C(=O)CC(C)(C)C)[C@H]2C[C@@H](C(=O)N3CCNCC3)N(Cc3ccc(-c4cccs4)s3)C2)c1 [D″]
< 1 | COc1cccc(CN(C(=O)CC(C)(C)C)[C@H]2C[C@@H](C(=O)NC3CCNCC3)N(Cc3ccc4c(c3)OCO4)C2)c1 [B′″]
< 10 | CCOc1cc(CN2CC(N(Cc3cccc(OC)c3)C(=O)CC(C)(C)C)CC2C(=O)N2CCNCC2)ccc1OC (stereo not drawn) [K′]
< 1 | COc1cccc(CN(C(=O)C2CC2)C2CC(C(=O)N3CCNCC3)N(Cc3ccc(OC)c(OC)c3OC)C2)c1 (stereo not drawn) [N′]
< 1 | Cc1ccc(CN2CC(N(Cc3cccs3)C(=O)C3CC3)CC2C(=O)N2CCNCC2)s1 (stereo not drawn) [U]
< 1 | Cc1ccccc1CN(C(=O)CC(C)C)C1CC(C(=O)N2CCNCC2)N(Cc2ccc3c(c2)OCO3)C1 (stereo not drawn) [V″]
< 1 | COc1cccc(CN(C(=O)NC(C)C)[C@H]2C[C@@H](C(=O)N3CCNCC3)N(Cc3ccc4c(c3)OCO4)C2)c1 [O″]
< 10 | COc1cccc(CN(C(=O)CC(C)(C)C)C2CC(C(=O)N3CCNCC3)N(Cc3cc4ccccc4n3C)C2)c1 (stereo not drawn) [F″]
< 1 | COc1cccc(CN(C(=O)CC(C)(C)C)C2CC(C(=O)N3CCNCC3)N(Cc3cc4ccsc4s3)C2)c1 (stereo not drawn) [Y′]
< 10 | CC(C)CC(=O)N(Cc1ccccc1OC(F)F)C1CC(C(=O)N2CCNCC2)N(Cc2ccc3c(c2)OCO3)C1 (stereo not drawn) [W″]
< 10 | CC(C)(C)CC(=O)N(Cc1ccccc1)C1CC(C(=O)NCCN)N(CC2CCCCC2)C1 (stereo not drawn) [Y]
< 1 | COc1cccc(CN(C(=O)CC(C)(C)C)C2CC(C(=O)N3CCCNCC3)N(Cc3ccc4c(c3)OCO4)C2)c1 (stereo not drawn) [Z]
< 0.1 | COc1cccc(CN(C(=O)CC(C)(C)C)C2CC(C(=O)N3CCNCC3)N(Cc3ccc4c(c3)OCO4)C2)c1 (stereo not drawn) [O′]
< 0.1 | COc1cccc(CN(C(=O)CC2CC2)[C@H]2C[C@@H](C(=O)N3CCNCC3)N(Cc3ccc4c(c3)OCO4)C2)c1 [J″]
< 1 | CCNCCCN(CC)C(=O)[C@@H]1C[C@H](N(Cc2cccc(OC)c2)C(=O)CC(C)(C)C)CN1Cc1ccc2c(c1)OCO2 [F′″]
< 10 | O=C(C1CC(N(CC2CCCCC2)CC2CCCO2)CN1Cc1ccc(F)cc1)N1CCNCC1 (stereo not drawn) [E′]
< 1 | COc1cccc(CN(C(=O)C2CCCC2)C2CC(C(=O)N3CCNCC3)N(Cc3ccc4c(c3)OCCO4)C2)c1 (stereo not drawn) [W′]
< 10 | Cc1ccccc1CN(CCc1ccccc1)C1CC(C(=O)NCC2CCC(CN)CC2)N(Cc2ccc3c(c2)OCO3)C1 (stereo not drawn) [I′]
< 10 | CC(C)CC(=O)N(Cc1cccc(SC(F)(F)F)c1)C1CC(C(=O)N2CCNCC2)N(Cc2ccc3c(c2)OCO3)C1 (stereo not drawn) [X″]
< 10 | CC(C)CC(=O)N(Cc1cccc(OCc2ccccc2)c1)C1CC(C(=O)N2CCNCC2)N(Cc2ccc3c(c2)OCO3)C1 (stereo not drawn) [Y″]
< 1 | COc1cccc(CN(C(=O)CC(C)(C)C)C2CC(C(=O)N3CCNCC3)N(CC3CCCCC3)C2)c1 (stereo not drawn) [T]
< 1 | COc1cccc(CN(C(=O)CC(C)(C)C)C2CC(C(=O)N3CCNCC3)N(Cc3ccc(SC)s3)C2)c1 (stereo not drawn) [Z′]
< 10 | CCC(=O)N(Cc1cccc(OC)c1)C1CC(C(=O)N2CCNCC2)N(Cc2ccc(OC)c(OC)c2OC)C1 (stereo not drawn) [S′]
< 10 | CCN1CCC(N(CC)C(=O)[C@@H]2C[C@H](N(Cc3cccc(OC)c3)C(=O)CC(C)(C)C)CN2Cc2ccc3c(c2)OCO3)C1 (stereo partly drawn) [E′″]
< 10 | O=C(C1CC(N(CC2CCCCC2)CC2CC2)CN1Cc1ccc(F)cc1)N1CCCNCC1 (stereo not drawn) [C′]
